Data taken from ChEMBL document CHEMBL4190327, “Substituted methoxybenzyl-sulfonyl-1H-benzo[d]imidazoles evaluated as effective H+/K+-ATPase inhibitors and anti-ulcer therapeutics” (Eur J Med Chem, 2017).

Key:
Erythrocyte [1] = assay: Anti-inflammatory activity in human RBC assessed as membrane stabilization; format: functional, cell-based
[2] = Inhibition of hydrogen potassium ATPase in goat stomach mucosal membrane assessed as decrease in inorganic phosphate production using ATP as substrate after 10 to 15 mins by spectrophotometric analysis; format: cell membranes, Capra hircus
Erythrocyte [3] = assay: Anti-inflammatory activity in human RBC assessed as membrane stabilization relative to control; format: functional; parameters: concentration or dose not given beside the values
Capra hircus = organism: Capra hircus; assay: Inhibition of hydrogen potassium ATPase in goat stomach mucosal membrane assessed as decrease in inorganic phosphate production using ATP as substrate after 10 to 15 mins by spectrophotometric analysis relative to omeprazole; format: cell membranes; parameters: concentration or dose not given beside the values

IC50 (Erythrocyte [1]) [nM] | IC50 [2] [nM] | Ki [2] [nM] | inhibition (Capra hircus) [%] | Compound | Activity (Erythrocyte [3]) [%]
1880 | 1660 | 25 to 1240 | 70.6 | COc1cc(CS(=O)(=O)c2nc3cc(OC(F)F)ccc3[nH]2)ccc1OCc1nccc(OCC(F)(F)F)c1C | 70.28
212 | 228 | 25 to 1240 | 92 | COc1cc(CS(=O)(=O)c2nc3ccccc3[nH]2)ccc1OCc1nccc(OC)c1OC | 91.12
898 | 918 | 25 to 1240 | 78.2 | COc1ccc2[nH]c(S(=O)(=O)Cc3ccc(OCc4nccc(OC)c4OC)c(OC)c3)nc2c1 | 78.42
 | 980 to 1010 |  | 82.1 | COc1ccc2[nH]c([S+]([O-])Cc3ncc(C)c(OC)c3C)nc2c1 (centres undefined) [OMEPRAZOLE] | 
142 | 124 | 25 to 1240 | 96.3 | COCCCOc1ccnc(COc2ccc(CS(=O)(=O)c3nc4cc(OC(F)F)ccc4[nH]3)cc2OC)c1C | 96.42
355 | 355 | 25 to 1240 | 81 | COCCCOc1ccnc(COc2ccc(CS(=O)(=O)c3nc4ccccc4[nH]3)cc2OC)c1C | 88.45
186 | 198 | 25 to 1240 | 94.4 | COc1cc(CS(=O)(=O)c2nc3cc(OC(F)F)ccc3[nH]2)ccc1OCc1nccc(OC)c1OC | 94.11
1420 | 1360 | 25 to 1240 | 73.2 | COc1cc(CS(=O)(=O)c2nc3cc(OC(F)F)ccc3[nH]2)ccc1OCc1ncc(C)c(OC)c1C | 73.56
942 |  |  |  | O=C(O)Cc1ccccc1Nc1c(Cl)cccc1Cl [DICLOFENAC] | 82.24
1760 | 1460 | 25 to 1240 | 72 | COc1ccc2[nH]c(S(=O)(=O)Cc3ccc(OCc4nccc(OCC(F)(F)F)c4C)c(OC)c3)nc2c1 | 71.58
1820 | 1680 | 25 to 1240 | 70.5 | COc1cc(CS(=O)(=O)c2nc3ccccc3[nH]2)ccc1OCc1ncc(C)c(OC)c1C | 70.41
1210 | 1150 | 25 to 1240 | 76.3 | COc1ccc2[nH]c(S(=O)(=O)Cc3ccc(OCc4ncc(C)c(OC)c4C)c(OC)c3)nc2c1 | 76.23
1310 | 1290 | 25 to 1240 | 74.9 | COc1cc(CS(=O)(=O)c2nc3ccccc3[nH]2)ccc1OCc1nccc(OCC(F)(F)F)c1C | 74.21
817 | 814 | 25 to 1240 | 80.2 | COCCCOc1ccnc(COc2ccc(CS(=O)(=O)c3nc4cc(OC)ccc4[nH]3)cc2OC)c1C | 79.41
